From patent US7842802B2, “Vinorelbine derivatives” (priority 2003, dated 2010)
Read-outs that look alike come from different tables or passages of the source.

Tests used:
MDA-MB-435 = experiment: NCI 60-cell line growth inhibition assay, MDA-MB-435; type: cell-based, human; details: Breast
Excerpt: (§1) The following data in Table 4 summarize the growth inhibition properties of several compounds of the present invention against 60-human transformed cell lines.

HCT-15 = experiment: NCI 60-cell line growth inhibition assay, HCT-15; type: cell-based, human; details: Colon
Excerpt: as §1

[1] = system: HeLa S-3 human cervical carcinoma cell line; experiment: HeLa GI50 determination (SRB); type: cell-based; details: HeLa S-3, 2 days of treatment, SRB, read-out: HeLa Cells GI50
Method: Growth inhibition (GI50) values were measured on the human cervical carcinoma cell line, HeLa S-3, which were selected for growth on plastic. The HeLa cell assay was based on the description of Skehan et al., J. Natl. Cancer Inst., 82:1107-12 (1990), which is hereby incorporated by reference in its entirety. HeLa cells were plated at 2×10^4 cells/well in 96 well plates. One day later, a control plate was fixed by the addition of TCA to 5%. After five rinses with tap water, the plate was air-dried and stored at 4° C. Test compounds were added to the remaining plates at 10-fold dilutions. Two days later, all plates were fixed as described above. Cells were then stained by the addition of 100 μL per well of 0.4% sulforhodamine B (SRB) in 1% acetic acid for 30 min at 4° C. Wells were then quickly rinsed 5× with 1% acetic acid and allowed to air dry. The SRB was then solubilized by the addition of 100 μL per well of unbuffered 10 mM Tris base. Dye was quantified by measuring absorbance at 490 nm on a Molecular Devices microplate reader. Growth inhibition was calculated according to the following equation: GI=100×(T−T0)/(C−T0), where the optical density (OD) of the test well after 2 days of treatment was T, the OD of the wells in the control plate on day 0 was T0 and C was the OD of untreated wells. Plots of percent growth inhibition versus inhibitor concentration were used to determine the GI50.

MCF7 = experiment: NCI 60-cell line growth inhibition assay, MCF7; type: cell-based, human; details: Breast
Excerpt: as §1

LOX IMVI = experiment: NCI 60-cell line growth inhibition assay, LOX IMVI; type: cell-based, human; details: Melanoma
Excerpt: as §1

HS 578T = experiment: NCI 60-cell line growth inhibition assay, HS 578T; type: cell-based, human; details: Breast
Excerpt: as §1

U251 = experiment: NCI 60-cell line growth inhibition assay, U251; type: cell-based, human
Excerpt: as §1

SF-295 = experiment: NCI 60-cell line growth inhibition assay, SF-295; type: cell-based, human; details: CNS
Excerpt: as §1

RPMI-8226 = experiment: NCI 60-cell line growth inhibition assay, RPMI-8226; type: cell-based, human
Excerpt: as §1

NCI/ADR-RES = experiment: NCI 60-cell line growth inhibition assay, NCI/ADR-RES; type: cell-based, human; details: Breast
Excerpt: as §1

A549/ATCC = experiment: NCI 60-cell line growth inhibition assay, A549/ATCC; type: cell-based, human; details: Non-Small Cell Lung
Excerpt: as §1

[2] = system: MCF-7 human breast carcinoma line; experiment: MCF-7 GI50 determination (crystal violet); type: cell-based; details: MCF-7, 4 days of treatment, crystal violet, read-out: MCF-7 Cells GI50
Method: Growth inhibition (GI50) values were measured on the human breast carcinoma line, MCF-7. MCF-7 cells were plated at 2×10^4 cells/well in 96 well plates and grown for 24 hours in drug free media. On day 2, test compounds were added to the plates at 10-fold dilutions. Four days later, cells were fixed by the addition of glutaraldehyde to 0.75%. After 30 min, the fixed cells were extensively rinsed with distilled water and dried at room temperature for one hour. The cells were then stained with a 0.2% crystal violet solution for one hour at room temperature. Unbound stain was removed by ten rinses with tap water and plates were allowed to air dry for 30 min. The crystal violet was then solubilized by the addition of 10% acetic acid for 15 min and quantified by measuring absorbance at 570 nm on a Molecular Devices microplate reader. Growth inhibition was calculated according to the following equation: GI=[…], where the optical density (OD) of the test well after 4 days of treatment was T, the OD of the wells in the control plate on day 0 was T0. Plots of percent growth inhibition versus inhibitor concentration were used to determine the GI50.

NCI-H23 = experiment: NCI 60-cell line growth inhibition assay, NCI-H23; type: cell-based, human; details: Non-Small Cell Lung
Excerpt: as §1

DU-145 = experiment: NCI 60-cell line growth inhibition assay, DU-145; type: cell-based, human; details: Prostate
Excerpt: as §1

KM12 = experiment: NCI 60-cell line growth inhibition assay, KM12; type: cell-based, human; details: Colon
Excerpt: as §1

SW-620 = experiment: NCI 60-cell line growth inhibition assay, SW-620; type: cell-based, human; details: Colon
Excerpt: as §1

HT29 = experiment: NCI 60-cell line growth inhibition assay, HT29; type: cell-based, human
Excerpt: as §1

UO-31 = experiment: NCI 60-cell line growth inhibition assay, UO-31; type: cell-based, human; details: Renal
Excerpt: as §1

PC-3 = experiment: NCI 60-cell line growth inhibition assay, PC-3; type: cell-based, human; details: Prostate
Excerpt: as §1

M14 = experiment: NCI 60-cell line growth inhibition assay, M14; type: cell-based, human; details: Melanoma
Excerpt: as §1

NCI-H226 = experiment: NCI 60-cell line growth inhibition assay, NCI-H226; type: cell-based, human; details: Non-Small Cell Lung
Excerpt: as §1

MALME-3M = experiment: NCI 60-cell line growth inhibition assay, MALME-3M; type: cell-based, human; details: Melanoma
Excerpt: as §1

UACC-62 = experiment: NCI 60-cell line growth inhibition assay, UACC-62; type: cell-based, human; details: Melanoma
Excerpt: as §1

NCI-H522 = experiment: NCI 60-cell line growth inhibition assay, NCI-H522; type: cell-based, human; details: Non-Small Cell Lung
Excerpt: as §1

HL-60(TB) = experiment: NCI 60-cell line growth inhibition assay, HL-60(TB); type: cell-based, human; details: Leukemia
Excerpt: as §1

HOP-92 = experiment: NCI 60-cell line growth inhibition assay, HOP-92; type: cell-based, human; details: Non-Small Cell Lung
Excerpt: as §1

SK-MEL-2 = experiment: NCI 60-cell line growth inhibition assay, SK-MEL-2; type: cell-based, human; details: Melanoma
Excerpt: as §1

SN12C = experiment: NCI 60-cell line growth inhibition assay, SN12C; type: cell-based, human; details: Renal
Excerpt: as §1

HOP-62 = experiment: NCI 60-cell line growth inhibition assay, HOP-62; type: cell-based, human; details: Non-Small Cell Lung
Excerpt: as §1

TK-10 = experiment: NCI 60-cell line growth inhibition assay, TK-10; type: cell-based, human; details: Renal
Excerpt: as §1

K-562 = experiment: NCI 60-cell line growth inhibition assay, K-562; type: cell-based, human
Excerpt: as §1

ACHN = experiment: NCI 60-cell line growth inhibition assay, ACHN; type: cell-based, human; details: Renal
Excerpt: as §1

MDA-MB-231/ATCC = experiment: NCI 60-cell line growth inhibition assay, MDA-MB-231/ATCC; type: cell-based, human; details: Breast
Excerpt: as §1

UACC-257 = experiment: NCI 60-cell line growth inhibition assay, UACC-257; type: cell-based, human; details: Melanoma
Excerpt: as §1

`CCC1=C[C@H]2CN(C1)Cc1c([nH]c3ccc(I)cc13)[C@@](C(=O)OC)(c1cc3c(cc1OC)N(C)[C@H]1[C@@](O)(C(=O)OC)[C@H](OC(C)=O)C4C(CC)=CCN5CC[C@]31[C@H]45)C2` (stereo partly drawn) [Example 2, 11′-iodovinorelbine] showed a GI50 (MDA-MB-435; Homo sapiens) of 1370 nM, a GI50 (HCT-15; Homo sapiens) of 1070 nM and a GI50 ([1]; Homo sapiens, HeLa S3, 48 h) of 25 nM. It also gave a GI50 (MCF7; Homo sapiens) of 11.3 nM, a GI50 (LOX IMVI; Homo sapiens) of 31.3 nM and a GI50 (HS 578T; Homo sapiens) of 19.2 nM. It also gave a GI50 (U251; Homo sapiens, U-251, CNS) of 42.3 nM, a GI50 (SF-295; Homo sapiens) of 27 nM and a GI50 (RPMI-8226; Homo sapiens, Leukemia) of 16.7 nM. The GI50 (NCI/ADR-RES; Homo sapiens) was 5280 nM, the GI50 (A549/ATCC; Homo sapiens) was 58.6 nM and the GI50 ([2]; Homo sapiens, MCF7, 96 h) was 7 nM. For the same molecule, the GI50 (NCI-H23; Homo sapiens) was 52.8 nM, the GI50 (DU-145; Homo sapiens) was 25.7 nM and the GI50 (KM12; Homo sapiens) was 92.7 nM. For the same molecule, the GI50 (SW-620; Homo sapiens) was 37.8 nM, the GI50 (HT29; Homo sapiens, HT-29, Colon) was 10.3 nM and the GI50 (UO-31; Homo sapiens) was 674 nM. For the same molecule, the GI50 (PC-3; Homo sapiens) was 57.3 nM, the GI50 (M14; Homo sapiens) was > 100000 nM and the GI50 (NCI-H226; Homo sapiens) was 83.3 nM. For the same molecule, the GI50 (MALME-3M; Homo sapiens) was 65 nM, the GI50 (UACC-62; Homo sapiens) was 25.6 nM and the GI50 (NCI-H522; Homo sapiens) was < 10 nM. It also gave a GI50 (HL-60(TB); Homo sapiens) of 71 nM, a GI50 (HOP-92; Homo sapiens) of 2250 nM and a GI50 (SK-MEL-2; Homo sapiens) of 1400 nM. It also gave a GI50 (SN12C; Homo sapiens) of 70.8 nM, a GI50 (HOP-62; Homo sapiens) of 37 nM and a GI50 (TK-10; Homo sapiens) of 298 nM. The GI50 (K-562; Homo sapiens, K562, Leukemia) was 12.4 nM, the GI50 (ACHN; Homo sapiens) was 1430 nM and the GI50 (MDA-MB-231/ATCC; Homo sapiens) was 77.2 nM. For the same molecule, the GI50 (UACC-257; Homo sapiens) was 3430 nM.
11′-bromovinorelbine [Example 1] was tested, and the GI50 (MDA-MB-435) was < 10 nM, the GI50 (HCT-15) was < 10 nM and the GI50 [1] was 5 nM. The GI50 (MCF7) was < 10 nM, the GI50 (LOX IMVI) was < 10 nM and the GI50 (HS 578T) was 679 nM. For the same molecule, the GI50 (U251; CNS) was < 10 nM, the GI50 (SF-295) was < 10 nM and the GI50 (RPMI-8226) was < 10 nM. The GI50 (RPMI-8226; Leukemia) was < 10 nM, the GI50 (NCI/ADR-RES) was 152 nM and the GI50 (A549/ATCC) was < 10 nM. For the same molecule, the GI50 [2] was 3 nM, the GI50 (NCI-H23) was < 10 nM and the GI50 (DU-145) was < 10 nM. For the same molecule, the GI50 (KM12) was < 10 nM, the GI50 (SW-620) was < 10 nM and the GI50 (HT29; Colon) was < 10 nM. The GI50 (UO-31) was < 10 nM, the GI50 (PC-3) was < 10 nM and the GI50 (M14) was < 10 nM. For the same molecule, the GI50 (NCI-H226) was < 10 nM, the GI50 (MALME-3M) was 53.6 nM and the GI50 (UACC-62) was < 10 nM. The GI50 (NCI-H522) was < 10 nM, the GI50 (HL-60(TB)) was < 10 nM and the GI50 (HOP-92) was 1240 nM. The GI50 (SK-MEL-2) was < 10 nM, the GI50 (SN12C) was < 10 nM and the GI50 (HOP-62) was < 10 nM. For the same molecule, the GI50 (TK-10) was < 10 nM, the GI50 (K-562; Leukemia) was < 10 nM and the GI50 (ACHN) was 3230 nM. For the same molecule, the GI50 (MDA-MB-231/ATCC) was < 10 nM and the GI50 (UACC-257) was 5730 nM.
